One experiment concerns the target T1, CYP3A4 (Homo sapiens, UniProt P08684). The experiment can be described thus: Determination of compound Kiapp against recombinant CYP3A4 enzyme (BFC fluorescent substrate). The settings on record: Baculo. enzyme preparation, read-out: Kiapp (BFC, Baculo.). In kind it is biochemical. Summed up: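 Kiapp derived from initial velocities over the first 5 min of BFC (5 uM) oxidation, using Morrison's tight-binding equation for non-partial and Szedlacsek's for partial inhibitors. Inhibitor first pre-incubated ≥30 min with CYP3A4 (5.5 or 8 nM, ±b5) in pH 7.0 phosphate/TCEP/2% DMF at room temperature; 200 uM NADPH initiated.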
T1 sequence (P08684 whole entry): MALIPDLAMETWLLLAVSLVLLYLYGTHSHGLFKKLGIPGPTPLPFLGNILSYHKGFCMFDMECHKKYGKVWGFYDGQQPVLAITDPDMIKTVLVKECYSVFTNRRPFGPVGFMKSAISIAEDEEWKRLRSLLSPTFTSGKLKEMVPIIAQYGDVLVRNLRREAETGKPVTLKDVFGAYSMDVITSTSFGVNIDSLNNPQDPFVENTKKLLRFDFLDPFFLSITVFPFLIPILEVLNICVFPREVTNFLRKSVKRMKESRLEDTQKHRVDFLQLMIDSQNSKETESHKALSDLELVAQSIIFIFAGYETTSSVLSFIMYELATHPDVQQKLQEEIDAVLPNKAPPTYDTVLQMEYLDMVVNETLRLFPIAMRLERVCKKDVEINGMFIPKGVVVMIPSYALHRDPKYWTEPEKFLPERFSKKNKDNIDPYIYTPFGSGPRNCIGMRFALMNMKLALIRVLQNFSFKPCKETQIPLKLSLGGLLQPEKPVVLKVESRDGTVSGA
Take `CCCN(CC1CC1)C(=O)c1ccccc1S(=O)(=O)N(C)c1cccnc1` [Example 337, N-(cyclopropylmethyl)-2-{[methyl(pyridin-3-yl)amino]sulfonyl}-N-propylbenzamide]: the Ki worked out at 285 nM.
Still for that read-out and setting: the value for `COc1cncc(NS(=O)(=O)c2ccccc2C(=O)N(C)CCC(C)C)c1` [Example 338, 2-{[(5-methoxypyridin-3-yl)amino]sulfonyl}-N-methyl-N-(3-methylbutyl)benzamide] was 24 nM; that for `CCCCCN(C)C(=O)c1ccccc1S(=O)(=O)Nc1cncc(OC)c1` [Example 339, 2-{[(5-methoxypyridin-3-yl)amino]sulfonyl}-N-methyl-N-pentylbenzamide] was 35.4 nM.
On to `CCCCCNC(=O)c1ccccc1S(=O)(=O)N(C)c1cccnc1` [Example 340, 2-{[methyl(pyridin-3-yl)amino]sulfonyl}-N-pentylbenzamide], for which the Ki was 338 nM.
Take `CCCCCN(C)C(=O)c1ccccc1S(=O)(=O)Nc1cncc(C)c1` [Example 341, N-methyl-2-{[(5-methylpyridin-3-yl)amino]sulfonyl}-N-pentylbenzamide]: the Ki is 36.6 nM.
On the same count and under the same terms, the figure for `Cc1cncc(NS(=O)(=O)c2ccccc2C(=O)NCc2cccc(F)c2)c1` [Example 342, N-(3-fluorobenzyl)-2-{[(5-methylpyridin-3-yl)amino]sulfonyl}benzamide] is 63 nM; for `Cc1cncc(NS(=O)(=O)c2ccccc2C(=O)N2CCCC(C)(C)C2)c1` [Example 343, 2-[(3,3-dimethylpiperidin-1-yl)carbonyl]-N-(5-methylpyridin-3-yl)benzenesulfonamide] it is 206 nM.
Take `Cc1cncc(NS(=O)(=O)c2ccccc2C(=O)N(C)CCc2ccccc2)c1` [Example 344, N-methyl-2-{[(5-methylpyridin-3-yl)amino]sulfonyl}-N-(2-phenylethyl)benzamide]: the Ki amounted to 54.4 nM.
Still for that read-out and setting: the figure for `CN(c1cccnc1)S(=O)(=O)c1ccccc1C(=O)N1CCCC(C)(C)C1` [Example 345, 2-[(3,3-dimethylpiperidin-1-yl)carbonyl]-N-methyl-N-pyridin-3-ylbenzenesulfonamide] is 409 nM.
`COc1cncc(NS(=O)(=O)c2ccccc2C(=O)N(C)Cc2cccc(F)c2)c1` [Example 346, N-(3-fluorobenzyl)-2-{[(5-methoxypyridin-3-yl)amino]sulfonyl}-N-methylbenzamide]: the Ki was 52 nM.

Staying with this experiment, now noted: Super. enzyme preparation, read-out: Kiapp (BFC, Super.).
With `CCCN(CC1CC1)C(=O)c1ccccc1S(=O)(=O)N(C)c1cccnc1` [Example 337, N-(cyclopropylmethyl)-2-{[methyl(pyridin-3-yl)amino]sulfonyl}-N-propylbenzamide], the Ki came out at 61.3 nM.
As to `COc1cncc(NS(=O)(=O)c2ccccc2C(=O)N(C)CCC(C)C)c1` [Example 338, 2-{[(5-methoxypyridin-3-yl)amino]sulfonyl}-N-methyl-N-(3-methylbutyl)benzamide], the Ki amounted to 6.8 nM.
In the case of `CCCCCN(C)C(=O)c1ccccc1S(=O)(=O)Nc1cncc(OC)c1` [Example 339, 2-{[(5-methoxypyridin-3-yl)amino]sulfonyl}-N-methyl-N-pentylbenzamide], the Ki was 6.1 nM.
Take `CCCCCNC(=O)c1ccccc1S(=O)(=O)N(C)c1cccnc1` [Example 340, 2-{[methyl(pyridin-3-yl)amino]sulfonyl}-N-pentylbenzamide]: the Ki was determined as 92.2 nM.
Consider `CCCCCN(C)C(=O)c1ccccc1S(=O)(=O)Nc1cncc(C)c1` [Example 341, N-methyl-2-{[(5-methylpyridin-3-yl)amino]sulfonyl}-N-pentylbenzamide], for which the Ki was determined as 13.1 nM.
Regarding `Cc1cncc(NS(=O)(=O)c2ccccc2C(=O)NCc2cccc(F)c2)c1` [Example 342, N-(3-fluorobenzyl)-2-{[(5-methylpyridin-3-yl)amino]sulfonyl}benzamide], the Ki is 13.1 nM.
Same read-out and setting: the value for `Cc1cncc(NS(=O)(=O)c2ccccc2C(=O)N2CCCC(C)(C)C2)c1` [Example 343, 2-[(3,3-dimethylpiperidin-1-yl)carbonyl]-N-(5-methylpyridin-3-yl)benzenesulfonamide] was 60.3 nM; that for `Cc1cncc(NS(=O)(=O)c2ccccc2C(=O)N(C)CCc2ccccc2)c1` [Example 344, N-methyl-2-{[(5-methylpyridin-3-yl)amino]sulfonyl}-N-(2-phenylethyl)benzamide] was 21.2 nM; that for `CN(c1cccnc1)S(=O)(=O)c1ccccc1C(=O)N1CCCC(C)(C)C1` [Example 345, 2-[(3,3-dimethylpiperidin-1-yl)carbonyl]-N-methyl-N-pyridin-3-ylbenzenesulfonamide] was 135 nM.
`COc1cncc(NS(=O)(=O)c2ccccc2C(=O)N(C)Cc2cccc(F)c2)c1` [Example 346, N-(3-fluorobenzyl)-2-{[(5-methoxypyridin-3-yl)amino]sulfonyl}-N-methylbenzamide]: the Ki came out at 13.2 nM.

A further experiment deals with T1, CYP3A4. The experiment in a line: Determination of IC50 against CYP3A4 by measurement of inhibition of midazolam metabolism (human liver microsomes, 1-hydroxymidazolam by LC-MS/MS). Also on record: 0.1 mg/mL human liver microsomes. It counts as biochemical. The settings on record: 2 μM midazolam, 0.1 mg/mL human liver microsomes. An outline of the steps: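 Human liver microsomes (0.1 mg/mL) incubated 8 min with 2 μM midazolam and 1 mM NADPH in 100 mM potassium phosphate, pH 7.4. 1-Hydroxymidazolam quantified by LC-MS/MS (MRM) as peak area ratio to internal standard against a metabolite standard curve.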
As for `CCCN(CC1CC1)C(=O)c1ccccc1S(=O)(=O)N(C)c1cccnc1` [Example 337, N-(cyclopropylmethyl)-2-{[methyl(pyridin-3-yl)amino]sulfonyl}-N-propylbenzamide], the IC50 amounted to 88 nM.
The same measure, in the same setting: the figure for `COc1cncc(NS(=O)(=O)c2ccccc2C(=O)N(C)CCC(C)C)c1` [Example 338, 2-{[(5-methoxypyridin-3-yl)amino]sulfonyl}-N-methyl-N-(3-methylbutyl)benzamide] is 23 nM; for `CCCCCN(C)C(=O)c1ccccc1S(=O)(=O)Nc1cncc(OC)c1` [Example 339, 2-{[(5-methoxypyridin-3-yl)amino]sulfonyl}-N-methyl-N-pentylbenzamide] it is 14 nM.
Regarding `CCCCCNC(=O)c1ccccc1S(=O)(=O)N(C)c1cccnc1` [Example 340, 2-{[methyl(pyridin-3-yl)amino]sulfonyl}-N-pentylbenzamide], the IC50 was 41 nM.
On the same count and under the same terms, the value for `CCCCCN(C)C(=O)c1ccccc1S(=O)(=O)Nc1cncc(C)c1` [Example 341, N-methyl-2-{[(5-methylpyridin-3-yl)amino]sulfonyl}-N-pentylbenzamide] was 22 nM; that for `Cc1cncc(NS(=O)(=O)c2ccccc2C(=O)NCc2cccc(F)c2)c1` [Example 342, N-(3-fluorobenzyl)-2-{[(5-methylpyridin-3-yl)amino]sulfonyl}benzamide] was 11 nM.
On the same count and under the same terms, the figure for `Cc1cncc(NS(=O)(=O)c2ccccc2C(=O)N2CCCC(C)(C)C2)c1` [Example 343, 2-[(3,3-dimethylpiperidin-1-yl)carbonyl]-N-(5-methylpyridin-3-yl)benzenesulfonamide] is 37 nM.
On the same count and under the same terms, the value for `Cc1cncc(NS(=O)(=O)c2ccccc2C(=O)N(C)CCc2ccccc2)c1` [Example 344, N-methyl-2-{[(5-methylpyridin-3-yl)amino]sulfonyl}-N-(2-phenylethyl)benzamide] was 7 nM.
Take `CN(c1cccnc1)S(=O)(=O)c1ccccc1C(=O)N1CCCC(C)(C)C1` [Example 345, 2-[(3,3-dimethylpiperidin-1-yl)carbonyl]-N-methyl-N-pyridin-3-ylbenzenesulfonamide]: the half-inhibitory concentration (IC50) is 75 nM.
As for `COc1cncc(NS(=O)(=O)c2ccccc2C(=O)N(C)Cc2cccc(F)c2)c1` [Example 346, N-(3-fluorobenzyl)-2-{[(5-methoxypyridin-3-yl)amino]sulfonyl}-N-methylbenzamide], the IC50 is 19 nM.

The next experiment deals with T1, CYP3A4. The experiment in a line: Determination of IC50 against CYP3A4 by measurement of inhibition of testosterone metabolism (human liver microsomes, 6-β-OH-testosterone by LC-MS/MS). In kind it is biochemical. Further details: 0.1 mg/mL human liver microsomes. The settings on record: read-out: IC50 (Testo.). An outline of the steps: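 6-β-OH-testosterone formation was read by LC-MS/MS (MRM, internal standard, standard curve) after eight minutes. Reaction contained testosterone 25 μM, NADPH 1 mM and microsomal protein 0.1 mg/mL in pH 7.4 potassium phosphate (100 mM).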
Turning to `CCCN(CC1CC1)C(=O)c1ccccc1S(=O)(=O)N(C)c1cccnc1` [Example 337, N-(cyclopropylmethyl)-2-{[methyl(pyridin-3-yl)amino]sulfonyl}-N-propylbenzamide], the IC50 turned out to be 64 nM.
As to `COc1cncc(NS(=O)(=O)c2ccccc2C(=O)N(C)CCC(C)C)c1` [Example 338, 2-{[(5-methoxypyridin-3-yl)amino]sulfonyl}-N-methyl-N-(3-methylbutyl)benzamide], the IC50 is 30 nM.
Take `CCCCCN(C)C(=O)c1ccccc1S(=O)(=O)Nc1cncc(OC)c1` [Example 339, 2-{[(5-methoxypyridin-3-yl)amino]sulfonyl}-N-methyl-N-pentylbenzamide]: the IC50 worked out at 26 nM.
In the case of `CCCCCNC(=O)c1ccccc1S(=O)(=O)N(C)c1cccnc1` [Example 340, 2-{[methyl(pyridin-3-yl)amino]sulfonyl}-N-pentylbenzamide], the IC50 was 44 nM.
For the compound `CCCCCN(C)C(=O)c1ccccc1S(=O)(=O)Nc1cncc(C)c1` [Example 341, N-methyl-2-{[(5-methylpyridin-3-yl)amino]sulfonyl}-N-pentylbenzamide], the IC50 is 26 nM.
Regarding `Cc1cncc(NS(=O)(=O)c2ccccc2C(=O)NCc2cccc(F)c2)c1` [Example 342, N-(3-fluorobenzyl)-2-{[(5-methylpyridin-3-yl)amino]sulfonyl}benzamide], the IC50 is 15 nM.
`Cc1cncc(NS(=O)(=O)c2ccccc2C(=O)N2CCCC(C)(C)C2)c1` [Example 343, 2-[(3,3-dimethylpiperidin-1-yl)carbonyl]-N-(5-methylpyridin-3-yl)benzenesulfonamide]: the IC50 came out at 80 nM.
Regarding `Cc1cncc(NS(=O)(=O)c2ccccc2C(=O)N(C)CCc2ccccc2)c1` [Example 344, N-methyl-2-{[(5-methylpyridin-3-yl)amino]sulfonyl}-N-(2-phenylethyl)benzamide], the IC50 turned out to be 9 nM.
Regarding `CN(c1cccnc1)S(=O)(=O)c1ccccc1C(=O)N1CCCC(C)(C)C1` [Example 345, 2-[(3,3-dimethylpiperidin-1-yl)carbonyl]-N-methyl-N-pyridin-3-ylbenzenesulfonamide], the IC50 is 48 nM.
For `COc1cncc(NS(=O)(=O)c2ccccc2C(=O)N(C)Cc2cccc(F)c2)c1` [Example 346, N-(3-fluorobenzyl)-2-{[(5-methoxypyridin-3-yl)amino]sulfonyl}-N-methylbenzamide], the IC50 came to 11 nM.

The term IC50 denotes the concentration at which inhibition is half-maximal.

For the origin of these results see patent publication US7868026B2, “Therapeutic compounds” (Pfizer Inc., priority 2005, dated 2011).
